Source: US20220016118A1, “COMBINATION OF A MCL-1 INHIBITOR AND MIDOSTAURIN, USES AND PHARMACEUTICAL COMPOSITIONS THEREOF” (LES LABORATOIRES SERVIER, priority 2018, published 2022)

Experiments:
MV-4-11 cells = assay: Western blot of FLT3-mediated signaling and Bcl-2 family proteins; assay type: cell-based; conditions: 6 hours
Description: B. Western blot analysis of FLT3-mediated signaling pathways and expression of Bcl-2 family proteins in MV-4-11 cells treated for 6 hours with Midostaurin. S63845 alone or in combination. De-phosphorylation of FLT3-ITD lead to inactivation of STAT5 and MAPK and was accompanied by significant downregulation of MAPK-mediated phosphorylation of Mcl-1 at Thr163, site required for Mcl-1 stability. Consequently, Midostaurin reduced level of Mcl-1.
Cells (3×10^6/well) were seeded in 6-well plates in 5 mL of complete RPMI medium and exposed to Midostaurin and S63845 given alone or in combination. Control cells received DMSO. Cells were incubated for 6 hours and then collected, washed twice in PBS and lysed in RIPA buffer (ThermoFisher Scientific) supplemented with 1× Protease and Phosphatase Inhibitor cocktail (ThermoFisher Scientific). Lysates were kept on ice for 20 minutes with vortexing every 5 minutes, then briefly sonicated and centrifuged at 13500 rpm for 15 minutes. Supernatant was collected and protein content was measured using […]. Cell lysates (30-50 μg protein per well) were resolved by electrophoresis on 4%-20% gradient precast sodium dodecyl sulfate-polyacrylamide gels (Bio-Rad, Hercules, Calif.) and transferred to PVDF membrane (Bio-Rad). […]

solid tumors = conditions: single agent, Phase I trial; cited from earlier work
Molm13 = assay: Caspase-Glo 3/7 caspase3.7 activity, dose matrix, Molm13; assay type: cell-based; conditions: single agent, Molm13 (FLT3-ITD), 6 hours treatment, highest dose 3 uM
Description: (§1) Both compounds were dissolved in 100% DMSO (Sigma, Catalog number D2650) at concentrations of 10 mM and stored at −20° C. until use.
(§2) The cell line Molm13 used in this study was purchased from Leibniz-Institut DSMZ (ACC 554) and MV-4-11 from American Type Cell Collection (ATCC® CRL-9591). The cell lines were cultured at 37° C. in a 5% CO2 incubator, Molm13 in RPMI (Lonza, 12-702F) and MV-4-11 in IMDM (Hyclone, SH30228.01) media complemented with 10% fetal bovine serum (Seradigm, 1500-500). The cells were passaged twice a week and the medium was changed every 2 to 3 days.
(§3) Caspase3.7 activity was measured by the Caspase-Glo® 3/7 kit from Promega (G8092), 9000 cells/well were dispensed into clear-bottom 384-well black plates (Greiner, #781091) in triplicates with 30 μl/well growth media. […] Then 30 ul/well of the Caspase-Glo® 3/7 reagents was added to each well at the end and luminescence was recorded on an Envision plate reader (Perkin Elmer). Measured Luminescence is proportional to the amount of caspase activity present. […]
(§4) The Compound A and Compound B “dose matrix”, consisted of the following: both compounds were subjected to a 11 dose 1:3 serial dilution with the highest dose of 3 uM and down to no-compound control. […] The percent caspase3.7 activity was calculated using the following calculation: (I-control/compound treated)×100. […]

MV4-11 FLT3-ITD = assay: Dynamic BH3 profiling (cytochrome C release); assay type: cell-based; conditions: 4 hours after treatment with Midostaurin (100 nM)
Description: Cells were subjected to BH3 profiling assay 4 hours after treatment with Midostaurin (100 nM). Increase in cytochrome C release is a quantitative measure of mitochondrial apoptosis initiation.
BH3 profiling was performed in black 384-well plates according to A. Letai method (https://letailab.dana-farber.org/bh3-profiling.html). Briefly, cells ([…]) were seeded in 6-well plates in 5 mL of complete RPMI medium and exposed to Midostaurin and S63845 given alone or in combination. Control cells received DMSO. Cells were incubated for 6 hours, collected, washed twice in PBS and resuspended in MEB buffer (150 mM mannitol, 10 mM HEPES-KOH pH 7.5, 150 mM KCl, 1 mM EGTA, 1 mM EDTA, 0.1% BSA, 5 mM succinate) to a final density 1×10^6/mL. Cells (15 μL) were added to 384-well plate containing containing peptides % BH3 mimetics and 15 μL of 0.002% digitonin in MEB buffer. Cells were incubated for 1 hour in 25° C. and subsequently fixed in 10 μL of 4% formaldehyde in PBS for 10 minutes. To terminate the fixation, 10 μL of N2 buffer (1.7M Tris, 1.25M Glycine pH 9.1) was added and cells were left at room temperature for 5 minutes. […] Cytochrome C release was measured by flow cytometry.

AML with FLT3 mutation = conditions: added to cytarabine and daunorubicin induction and cytarabine consolidation; cited from earlier work
MV-4-11 = assay: Caspase-Glo 3/7 caspase3.7 activity, dose matrix, MV-4-11; assay type: cell-based; conditions: single agent, MV-4-11 (FLT3-ITD), 6 hours treatment, highest dose 3 uM
Description: as §1, §2, §3, §4

## CO[C@]1(O)[C@H](N(C)C(=O)c2ccccc2)C[C@H]2O[C@]1(C)n1c3ccccc3c3c4c(c5c6ccccc6n2c5c31)C(=O)NC4 [Compound A, 4′-N-benzoylstaurosporine]
MV-4-11 cells
  level of pro-apoptotic Bim: increased
MV-4-11 cells; MV-4-11 cells
  level of Mcl-1: reduced
Solid tumors
  efficacy: limited efficacy
  toxicity: low toxicity
Molm13
  induction of caspase activity, maximum increase: 33%
MV4-11 FLT3-ITD
  mitochondrial priming to Mcl-1 inhibitor S63845 and Bim peptide: increased
AML with FLT3 mutation
  overall survival: increased overall survival
MV-4-11
  induction of caspase activity, maximum increase: 24%

## COc1ccccc1-c1nccc(COc2ccccc2C[C@@H](Oc2ncnc3sc(-c4ccc(F)cc4)c(-c4ccc(OCCN5CCN(C)CC5)c(Cl)c4C)c23)C(=O)O)n1 [Compound B, (2R)-2-{[(5Sa)-5-{3-chloro-2-methyl-4-[2-(4-methylpiperazin-1-yl)ethoxy]phenyl}-6-(4-fluorophenyl)thieno[2,3-d]pyrimidin-4-yl]oxy}-3-(2-{[2-(2-methoxyphenyl)pyrimidin-4-yl]methoxy}phenyl)propanoic acid]
Molm13
  induction of caspase activity, maximum increase: 87%
MV-4-11
  induction of caspase activity, maximum increase: 89%
